Reference: US20140171918A1, “USE OF A NOVEL SU[…]-FREE […] TO DELIVER TE[…] H[…]” (Bioject, Inc., priority 2012, published 2014)

What was measured:
[1] = Pharmacokinetic evaluation using testosterone levels after needle-free (Zetajet) subcutaneous self-injection; assay type: in vivo, human
Text: The goal of the study is to determine if a needle-free injector can consistently deliver frequent administrations (daily or three times weekly) of testosterone in a safe and effective manner. To answer this specific question, the study was designed to determine the efficacy (defined as testosterone serum levels, wetness, pain, and clinical questionnaire) of the combined product (cross labeled) of needle-free injection of testosterone cypionate hypogonadal men. This includes both objective (testosterone free and total levels) and subjective (pain and clinical questionnaire).
On Jan. 26, 2013, IRBS approved a modification of the CP-445 study. Due to a clear efficacy and patient acceptance at day 30, an extension of the study was requested to follow the fourteen subject's testosterone levels at a less frequent dosing interval and increased dosage. There was no deviation to the protocol as originally designed for day 0-30. Nor was there any deviation to the conduct of the study to day 120. This modification allowed following subjects out to day 120 on a Monday, Wednesday, Friday dosing of 50 mg of testosterone cypionate. Only T levels at day 60 and 120 were assessed.

[2] = system: hypogonadal men; assay: Visual/verbal analog pain scale after needle-free injection
Protocol: Each subject was given thorough instruction on performing self needle-free injections with the Zetaj et. […] Pharmacokinetic evaluation using testosterone levels were obtained at specified intervals. Secondary endpoints, both objective and subjective, included E2 levels, pain score diaries, and AMS scores obtained before and after one month of treatment. A dose confirmation strategy was conducted to achieve likelihood of valid dose.
From day 60-90, all subjects were verified to have cottonseed vehicle in the commercially available formulation via Watson Pharmaceutical.

[3] = system: hypogonadal men; assay: Aging Male Score (AMS) questionnaire before and after treatment; assay type: in vivo, human
Text: AMS scoring was based on a rating of symptom severity ranging from no symptoms with the lowest score of 1 to severe symptoms with a […].

[4] = system: hypogonadal men; assay: Adverse events, injection site reactions and wetness after needle-free injection; assay type: in vivo, human
Text: Of the 14 patients 9 recorded symptoms of redness, 5 symptoms of bruising and one an induration. None of these reactions required medical follow up or dissuaded any patient from discontinuing treatment. See section on Preference for additional data on patient preference and comparison of needle-Free injection methods to needle and syringe. FIG. 5 depicts post injection site reactions as a percentage of the total number of injections for 14 patients over a 30 day period.
Wetness at the injection site is believed to be attributed to moisture on the tip of the syringe prior to the injection per recommended technique. Wetness with visible moisture flow at the site of the injection is thought to result from improper injection technique and a lack of fluid pressure in the nozzle because of the technique. Results for wetness varied across all patients. FIG. 7 depicts cumulative wetness results by category as a percentage of total injections.

C[C@]12CC[C@H]3[C@@H](CCC4=CC(=O)CC[C@@]43C)[C@@H]1CC[C@@H]2OC(=O)CCC1CCCC1 [testosterone cypionate]
course of free and total testosterone levels ([1]; 25 mg daily Zetajet injection, 6 hours to day 30): consistently rose from 6 hours to day 30
average testosterone level of the men with supraphysiologic levels (above 975.0 ng/dl) ([1]; 25 mg daily Zetajet injection, day 30, four men): 1203 ng/dl
increase of free testosterone levels ([1]; 25 mg daily, from 8.76 ng/dl to 37.5 ng/dl): over four fold increase
average total testosterone levels of QODWO dosing lower than daily injections ([1]; QODWO 50 mg vs daily 25 mg): 35%
increase in testosterone levels ([1]; QODWO dosing at 50 mg): 3 fold
supraphysiologic levels of testosterone ([1]; QODWO dosing at 50 mg): no men had supraphysiologic levels
men with normal testosterone levels ([1]; QODWO dosing at 50 mg, men who completed the 120 day study extension): 11 out of 11
average free testosterone level ([1]; after 25 mg daily injection, baseline average 8.76 ng/dl): 37.5 ng/dL
men with normal testosterone levels (primary endpoint) ([1]; at two weeks, 25 mg daily): 13/14
increase in average testosterone levels from baseline ([1]; daily dosing regimen of 25 mg a day): over four fold increase
average testosterone level after correction to the normal range ([1]; three formerly supraphysiologic subjects continued on QODWO regimen (50 mg), extended study): 519 ng/dL
verbal analog pain score, average ([2]; five minutes after injection, scale 0-4, 25 mg daily needle-free injection): 0.54
visual analog pain score, average ([2]; five minutes after injection, scale 0-10, 25 mg daily needle-free injection in the abdomen): 0.4
verbal analog pain score ([2]; thirty minutes after injection, scale 0-4, 4 most painful): 0.26
visual analog pain score ([2]; thirty minutes after injection, scale 0-10, 10 most painful): 0.14
average AMS score after treatment ([3]; after one month of 25 mg daily, baseline average 50 points, thirteen of fourteen men): 25 points
average reduction in bothersome hypogonadal symptoms (AMS score) ([3]; after one month of treatment vs before): 50%
allergic response or major bruising ([4]; 100 mg/ml and 200 mg/ml commercially available formulations): No allergic response or major bruising
share of injections resulting in minor redness and bruising ([4]; 14 patients over 30 days): a quarter
severe adverse events ([4]; entire study (to day 120)): No severe adverse events
tolerability / safety in words ([4]; needle-free injection in hypogonadal men): well tolerated
patients who recorded an induration ([4]; of the 14 patients, 30 days): one
patients who recorded symptoms of bruising ([4]; of the 14 patients, 30 days): 5
patients who recorded symptoms of redness ([4]; of the 14 patients, 30 days): 9
